From patent US6884418B1, “Use of ligand-mimicking agents and anti-neoplastic drugs in cancer therapy” (Berlex Laboratories, Inc., priority 1989, dated 2005)

Legend:
[1] = tested on: SKBR3 cells; experiment: MTT assay, SKBR3 cells; assay type: cell-based, human
Procedure: The MTT assay is generally used to assess cellular viability as a function of mitochondrial activity. The assay was used to examine effects of cisplatin with and without the c-erbB-2 monoclonal antibodies and was carried out as follows:
MTT was added for 4 hours and the crystals dissolved with isopropanol/0.04N HCI/0.3% SDS.

[2] = tested on: SKBR3 cells; experiment: Soft agar clonogenic assay, SKBR3; assay type: cell-based, human; details: 10 ng/ml cisplatin alone
Procedure: The effects of TAb 250 alone and in combination with cisplatin (CDDP) on growth of human tumor cells in soft agar was assessed. SKOV3 (6,000 cells per ml) or SKBR3 (12,000 cells per ml) were incubated in assay medium (DMEM:F12, University of California at San Francisco Cell Culture Facility), 10% dialyzed FBS 0.1 mM nonessential amino acids in solution obtained from Gibco, 1 mM sodium pyruvate and 10 mM HEPES) for 30 minutes at 37° C. with 1 or 10 μg/ml TAb 250. CDDP at concentrations of either 10 ng/ml for SKBR3 cells and 100 ng/ml for SKOV3 cells was then added and the incubation continued for 1.5 hours at 37° C. An equal volume of assay medium containing 0.8% Sea Plaque agarose and appropriate concentrations of TAb 250 and CDDP were combined with the cell mixture. Triplicate 1 ml aliquots were dispensed onto base layers of 0.8% agarose in assay medium containing the appropriate amounts of TAb 250, CDDP or both, in 35 mm dishes. After 14 days at 37° C./5% CO2 in a humidified chamber, viable colonies were stained for 24 hours with Nitro Blue tetrazolium dye (Sigma, 500 μg in 1 ml PBS). Stained colonies greater than 60 μ were scored positive using a FAS III Image Analysis System (Bausch and Lomb, Rochester, N.Y.). The data are expressed as a percentage of untreated control colonies formed. In control dishes, SKOV3 and SKBR3 cells formed 859+/−16 and 1107+/−72 colonies, respectively. […]

## N.N.O=C([O-])C1(C(=O)[O-])CCC1.[Pt+2] [carboplatin, cis-diammine-1,1-cyclobutane dicarboxylate platinum]
[1]; 16 μg of carboplatin alone
  cell proliferation: 63 % of control
[1]; MTT assay, carboplatin 16 μg, melphalan 20 μg
  synergistic response of the drug combined with TAb 250: synergistic effects

## N.N.[Cl][Pt][Cl] [cisplatin, cis-diamminedichloroplatinum]
[2]
  colony formation in soft agar: did not inhibit colony formation
[1]; 1.0 μg of cisplatin alone
  cell growth: 65 % of control
[1]; 3.0 μg of cisplatin alone
  toxicity to the cells: highly toxic

## N[C@@H](Cc1ccc(N(CCCl)CCCl)cc1)C(=O)O [melphalan, 4-[bis(2-chloroethyl)amino] L-phenylalanine]
[1]; 20 μg of melphalan alone
  proliferation: 70 % of control
